Data on 45 substances can be found in patent US11214803B2, “Modulators of YAP1 expression” (Ionis Pharmaceuticals, Inc., priority 2019, dated 2022).

Strand notation (5' to 3'): a small letter for the sugar, then the base; units joined by * are phosphorothioate-linked, units joined directly phosphodiester-linked; [ ] holds rarer units or linkages, { } end groups; capitals alone tell only the bases. k = constrained ethyl (cEt); [5mC] = 5-methylcytosine; d = 2'-deoxy (DNA)

The subject of one data set is Yap1 mRNA. The data set can be described thus: Antisense inhibition of human Yap1 in A-431 cells by cEt gapmers, single dose (Example 3, RTS36584). Format: cell-based. Conditions: Table 9; A-431 cells, 5,000 cells per well, free uptake, 2,000 nM, approximately 48 hours; RTS36584; normalized to RIBOGREEN; Yap1 mRNA relative to untreated control cells. The essentials: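 Values are % untreated control: Yap1 mRNA by quantitative RT-PCR (RTS36584), normalized to total RNA by RiboGreen. Before RNA isolation, 5,000 A-431 cells per well were exposed ~48 h to 2,000 nM 16-mer cEt gapmer, delivered without transfection reagent.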
Take “958781 (antisense kG*kT*k[5mC]*dA*dT*d[5mC]*dT*dA*dT*dG*dT*dG*dT*k[5mC]*k[5mC]*kT) [Compound 958781]”: the “YAP1 (% UTC)” value is recorded as 6 % UTC.
As for “958786 (antisense kT*kA*kT*dG*dT*d[5mC]*d[5mC]*dT*dA*d[5mC]*dT*dT*dT*k[5mC]*k[5mC]*k[5mC]) [Compound 958786]”, the “YAP1 (% UTC)” value is 10 % UTC.
With “958791 (antisense k[5mC]*kA*kT*dA*dA*dG*dA*dA*dA*dA*dG*dA*d[5mC]*kG*kA*k[5mC]) [Compound 958791]”, the “YAP1 (% UTC)” value came out at 123 % UTC.
Regarding “958796 (antisense kA*kT*kT*dA*dT*dA*dT*dG*dG*dT*dT*dG*d[5mC]*kT*kT*k[5mC]) [Compound 958796]”, the “YAP1 (% UTC)” value is on record as 3 % UTC.
Regarding “958801 (antisense k[5mC]*kG*k[5mC]*dT*dA*dG*d[5mC]*dA*d[5mC]*dG*d[5mC]*dG*d[5mC]*kG*k[5mC]*kT) [Compound 958801]”, the “YAP1 (% UTC)” value is 131 % UTC.
On to “958806 (kT*kG*k[5mC]*d[5mC]*dT*dA*dG*dG*dG*dT*dT*d[5mC]*dT*kG*kT*kG; antisense) [Compound 958806]”, for which the “YAP1 (% UTC)” value stood at 30 % UTC.
Turning to “958811 (k[5mC]*kA*k[5mC]*dT*dG*dA*dG*dG*d[5mC]*dA*d[5mC]*dG*dG*k[5mC]*k[5mC]*k[5mC]; antisense) [Compound 958811]”, the “YAP1 (% UTC)” value is reported as 92 % UTC.
Regarding “958816 (kG*kT*kG*dA*dT*dA*dA*d[5mC]*dA*dT*dA*dT*d[5mC]*k[5mC]*k[5mC]*kA; antisense) [Compound 958816]”, the “YAP1 (% UTC)” value turned out to be 71 % UTC.

The same data set, now with this note: Table 10; A-431 cells, 5,000 cells per well, free uptake, 2,000 nM oligonucleotide, approx. 48 hours; primer probe set RTS36584; Yap1 mRNA normalized to RIBOGREEN, percent of untreated control.
Take “958782 (antisense kA*kT*kG*dG*dT*d[5mC]*dT*d[5mC]*d[5mC]*d[5mC]*dA*dG*dT*k[5mC]*kA*k[5mC]) [Compound 958782]”: the “YAP1 (% UTC)” value worked out at 20 % UTC.
For “958787 (antisense kT*kG*kG*dG*d[5mC]*dA*dA*dA*dG*dT*dT*d[5mC]*d[5mC]*kT*k[5mC]*kT) [Compound 958787]”, the “YAP1 (% UTC)” value was determined as 67 % UTC.
Take “958792 (antisense kG*k[5mC]*k[5mC]*dA*dA*dT*dG*dG*dA*dG*dT*d[5mC]*dA*k[5mC]*k[5mC]*kA) [Compound 958792]”: the “YAP1 (% UTC)” value is given as 46 % UTC.
As to “958797 (antisense kA*k[5mC]*kG*dA*dG*d[5mC]*dA*d[5mC]*dA*dG*d[5mC]*dA*d[5mC]*k[5mC]*k[5mC]*kT) [Compound 958797]”, the “YAP1 (% UTC)” value was found to be 13 % UTC.
As for “958802 (antisense kA*kG*kA*dT*dA*dA*dT*d[5mC]*dA*dT*d[5mC]*d[5mC]*dT*k[5mC]*kA*kA) [Compound 958802]”, the “YAP1 (% UTC)” value is listed as 25 % UTC.
As to “958807 (kT*k[5mC]*kA*dT*dT*dG*dT*dA*dG*dT*d[5mC]*dT*dG*kT*k[5mC]*kT; antisense) [Compound 958807]”, the “YAP1 (% UTC)” value turned out to be 3 % UTC.
Regarding “958812 (kT*kA*k[5mC]*dT*dA*dT*dA*dA*dG*dA*d[5mC]*dA*d[5mC]*k[5mC]*kA*kA; antisense) [Compound 958812]”, the “YAP1 (% UTC)” value came to 31 % UTC.
As to “958817 (kT*kG*k[5mC]*d[5mC]*dA*dG*dG*dT*dA*dA*dG*d[5mC]*d[5mC]*kA*k[5mC]*kA; antisense) [Compound 958817]”, the “YAP1 (% UTC)” value came out at 30 % UTC.

The data set is the same for the next values; noted with them: Table 11; A-431 cells, 5,000 cells per well, free uptake, 2,000 nM oligonucleotide, approx. 48 hours; primer probe set RTS36584; Yap1 mRNA normalized to RIBOGREEN, percent of untreated control.
Regarding “958778 (antisense kG*k[5mC]*kT*dA*d[5mC]*d[5mC]*dT*dG*dG*dA*dG*d[5mC]*dG*kA*kA*kG) [Compound 958778]”, the “YAP1 (% UTC)” value is listed as 75 % UTC.
Turning to “958783 (antisense kT*kG*kA*dT*d[5mC]*dT*dG*dA*dT*dG*d[5mC]*dT*dT*kG*k[5mC]*kT) [Compound 958783]”, the “YAP1 (% UTC)” value turned out to be 35 % UTC.
Consider “958788 (antisense k[5mC]*kT*kG*dG*dG*d[5mC]*dA*dA*dA*dG*dT*dT*d[5mC]*k[5mC]*kT*k[5mC]) [Compound 958788]”, for which the “YAP1 (% UTC)” value was 54 % UTC.
Turning to “958793 (antisense k[5mC]*k[5mC]*kG*d[5mC]*dA*dT*dT*dG*d[5mC]*d[5mC]*dT*dA*dA*kG*kA*kG) [Compound 958793]”, the “YAP1 (% UTC)” value is listed as 9 % UTC.
Still for that read-out and setting: the result for “958798 (antisense kT*kG*k[5mC]*dA*dG*dT*dA*dT*dA*dA*dT*dA*dT*k[5mC]*k[5mC]*kT) [Compound 958798]” reads 3 % UTC; that for “958803 (antisense kG*kA*kT*dA*dA*dT*d[5mC]*dA*dT*d[5mC]*d[5mC]*dT*d[5mC]*kA*kG*k[5mC]) [Compound 958803]”, 24 % UTC; that for “958808 (kA*kG*k[5mC]*dG*dA*dT*dT*dG*dG*d[5mC]*d[5mC]*dT*d[5mC]*k[5mC]*k[5mC]*kA; antisense) [Compound 958808]”, 59 % UTC.
Take “958813 (kT*kT*kA*d[5mC]*dA*dG*dA*dG*dA*dG*dA*dT*dT*k[5mC]*kA*kT; antisense) [Compound 958813]”: the “YAP1 (% UTC)” value turned out to be 8 % UTC.
On the same count and under the same terms, then “958818 (kG*kT*kT*dG*dT*d[5mC]*dA*dA*d[5mC]*dT*d[5mC]*dT*dA*kG*kG*kG; antisense) [Compound 958818]”, with 23 % UTC.

The data set is the same for the next values; noted with them: Table 12; A-431 cells, 5,000 cells per well, free uptake, 2,000 nM modified oligonucleotide, approx. 48 hours; RTS36584; normalized to RIBOGREEN; Yap1 mRNA relative to untreated control cells.
Take “958779 (antisense kT*k[5mC]*kG*dA*dA*dT*dA*dT*dA*dG*dA*dG*dG*k[5mC]*k[5mC]*kT) [Compound 958779]”: the “YAP1 (% UTC)” value is given as 80 % UTC.
Turning to “958784 (antisense kG*kG*k[5mC]*dT*dG*dG*dA*dT*dA*dG*dA*dA*dT*kG*k[5mC]*kT) [Compound 958784]”, the “YAP1 (% UTC)” value came to 79 % UTC.
“958789 (antisense kT*kA*k[5mC]*dT*dA*dT*dA*dT*dA*dA*dT*dA*d[5mC]*k[5mC]*k[5mC]*kT) [Compound 958789]”: the “YAP1 (% UTC)” value is 17 % UTC.
For the substance “958794 (antisense kT*kT*k[5mC]*d[5mC]*dG*d[5mC]*dA*dT*dT*dG*d[5mC]*d[5mC]*dT*kA*kA*kG) [Compound 958794]”, the “YAP1 (% UTC)” value is on record as 14 % UTC.
Turning to “958799 (antisense kA*kT*kT*dA*d[5mC]*dT*d[5mC]*dA*dA*dT*d[5mC]*dA*dT*kG*kG*kT) [Compound 958799]”, the “YAP1 (% UTC)” value is reported as 2 % UTC.
With “958804 (antisense kA*kG*kA*dT*dA*dA*dT*d[5mC]*dA*dT*d[5mC]*d[5mC]*dT*k[5mC]*kA*kG) [Compound 958804]”, the “YAP1 (% UTC)” value is 17 % UTC.
On to “958809 (kT*k[5mC]*kT*dT*dA*dA*d[5mC]*dA*d[5mC]*d[5mC]*dT*dG*dA*kG*k[5mC]*kT; antisense) [Compound 958809]”, for which the “YAP1 (% UTC)” value stood at 66 % UTC.
Still for that read-out and setting: then “958814 (kG*kG*k[5mC]*dT*dA*dT*dG*d[5mC]*d[5mC]*dT*d[5mC]*dT*d[5mC]*kT*kT*kA; antisense) [Compound 958814]”, with 214 % UTC; and “958819 (kT*kG*k[5mC]*dT*dT*d[5mC]*dA*dA*d[5mC]*dA*dT*dT*dG*kT*kT*k[5mC]; antisense) [Compound 958819]”, with 9 % UTC.

Staying with this data set, now noted: Table 13; A-431 cells, 5,000 cells per well, free uptake, 2,000 nM modified oligonucleotide, approx. 48 hours; RTS36584; normalized to RIBOGREEN; Yap1 mRNA relative to untreated control cells.
For the substance “958780 (antisense kT*k[5mC]*kA*dA*d[5mC]*dT*dA*d[5mC]*dT*dT*dT*dT*d[5mC]*kA*kG*k[5mC]) [Compound 958780]”, the “YAP1 (% UTC)” value is given as 24 % UTC.
On to “958785 (antisense kG*k[5mC]*kA*dA*dT*d[5mC]*d[5mC]*dA*d[5mC]*dA*dA*dT*dT*k[5mC]*k[5mC]*kA) [Compound 958785]”, for which the “YAP1 (% UTC)” value worked out at 2 % UTC.
Same read-out and setting: then “958790 (antisense kG*kA*kA*dA*dA*dG*dA*d[5mC]*dG*dA*d[5mC]*dA*d[5mC]*kA*kG*kT) [Compound 958790]”, with 68 % UTC; and “958795 (antisense kT*kA*kT*dT*d[5mC]*d[5mC]*dG*d[5mC]*dA*dT*dT*dG*d[5mC]*k[5mC]*kT*kA) [Compound 958795]”, with 8 % UTC; and “958800 (antisense kT*k[5mC]*kG*dA*dT*dA*dA*dT*dA*dT*dA*dT*dG*kG*k[5mC]*kA) [Compound 958800]”, with 22 % UTC.
Turning to “958805 (k[5mC]*kA*kA*dG*dA*dT*dA*dA*dT*d[5mC]*dA*dT*d[5mC]*k[5mC]*kT*k[5mC]; antisense) [Compound 958805]”, the “YAP1 (% UTC)” value is reported as 6 % UTC.
Still for that read-out and setting: the result for “958810 (kT*kT*kA*dT*dA*dT*dA*d[5mC]*dG*dG*dG*dA*dA*kA*kA*kT; antisense) [Compound 958810]” reads 47 % UTC; that for “958815 (kG*kG*kG*d[5mC]*dG*dA*dG*dG*dA*dG*dA*d[5mC]*dA*kG*kG*kT; antisense) [Compound 958815]”, 16 % UTC.
Take “958820 (kG*kA*k[5mC]*d[5mC]*dA*dG*dT*dA*dA*dG*dA*dA*dG*k[5mC]*k[5mC]*kA; antisense) [Compound 958820]”: the “YAP1 (% UTC)” value worked out at 49 % UTC.

Still in this data set, the particulars now being: Table 26; Yap1 mRNA by 3-10-3 cEt gapmers targeting SEQ ID NO.: 1, and 2; percent of untreated control.
Regarding “1074124 (kG*kG*k[5mC]*dT*dG*d[5mC]*dG*dA*dG*dG*d[5mC]*dA*d[5mC]*kT*k[5mC]*kG; antisense) [compound 1074124]”, the “YAP1 (% UTC)” value came out at 94 % UTC.

Staying with this data set, now noted: Table 27; Yap1 mRNA by 3-10-3 cEt gapmers targeting SEQ ID NO.: 1, and 2; percent of untreated control.
Take “1074125 (kG*k[5mC]*kG*dG*d[5mC]*dT*dG*d[5mC]*dG*d[5mC]*d[5mC]*dT*d[5mC]*kG*kG*kG; antisense) [compound 1074125]”: the “YAP1 (% UTC)” value is 94 % UTC.
